Data as given in ChEMBL document CHEMBL1155491, “Acylurea connected straight chain hydroxamates as novel histone deacetylase inhibitors: Synthesis, SAR, and in vivo antitumor activity” (Bioorg Med Chem Lett, 2010).
Converted amounts (≈) assume the structure as drawn. The source made the active and inactive calls. No cut-off for these calls is given here.

What was measured:
HCT-116 [1] = assay: Antiproliferative activity against human HCT116 cells; format: functional, cell-based
A2780 = assay: Antiproliferative activity against human A2780 cells; format: functional, cell-based
PC-3 = assay: Antiproliferative activity against human PC3 cells; format: functional, cell-based
[2] = Solubility at pH 7; format: physicochemical; conditions: buffer
[3] = Half life in human liver microsome; format: ADME; conditions: liver microsomes
Histone deacetylase 1 [4] = molecular target: T1, Histone deacetylase 1 (Homo sapiens, UniProt Q13547); assay: Inhibition of HDAC1 in human COLO205 cells assessed as induction of histone H3 acetylation at 10 uM by Western-immuno blotting; format: cell-based; conditions: COLO 205
T1 sequence (Q13547 whole entry): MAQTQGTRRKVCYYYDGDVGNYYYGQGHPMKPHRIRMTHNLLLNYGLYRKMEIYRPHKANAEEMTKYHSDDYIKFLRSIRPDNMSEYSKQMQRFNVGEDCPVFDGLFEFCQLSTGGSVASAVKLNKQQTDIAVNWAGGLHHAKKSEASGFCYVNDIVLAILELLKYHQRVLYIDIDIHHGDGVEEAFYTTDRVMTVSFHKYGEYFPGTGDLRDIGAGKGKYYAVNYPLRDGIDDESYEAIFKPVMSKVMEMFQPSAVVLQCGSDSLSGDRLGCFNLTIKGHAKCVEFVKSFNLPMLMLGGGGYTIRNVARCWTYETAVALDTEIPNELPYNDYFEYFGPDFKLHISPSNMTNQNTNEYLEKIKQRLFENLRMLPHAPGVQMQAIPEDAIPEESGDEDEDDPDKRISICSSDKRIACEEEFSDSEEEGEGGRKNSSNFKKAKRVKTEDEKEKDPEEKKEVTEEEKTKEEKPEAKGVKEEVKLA

Histone deacetylase 1 [5] = molecular target: T1, Histone deacetylase 1
Histone deacetylase 1 [6] = molecular target: T1, Histone deacetylase 1; remark: listed apart in the source
Histone deacetylase 8 = molecular target: T2, Histone deacetylase 8 (Homo sapiens, UniProt Q9BY41); assay: Inhibition of HDAC8
T2 sequence (Q9BY41 whole entry): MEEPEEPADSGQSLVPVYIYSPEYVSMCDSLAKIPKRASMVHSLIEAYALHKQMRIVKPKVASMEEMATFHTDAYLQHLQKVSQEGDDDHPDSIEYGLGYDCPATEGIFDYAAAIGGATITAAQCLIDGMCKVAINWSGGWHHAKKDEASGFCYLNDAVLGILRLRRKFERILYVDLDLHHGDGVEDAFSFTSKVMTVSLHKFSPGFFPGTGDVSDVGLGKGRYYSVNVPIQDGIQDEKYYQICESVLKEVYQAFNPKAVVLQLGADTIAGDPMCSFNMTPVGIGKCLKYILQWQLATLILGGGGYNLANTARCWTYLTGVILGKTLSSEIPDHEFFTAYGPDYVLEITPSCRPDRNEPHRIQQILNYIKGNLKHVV

[7] = Thermodynamic solubility at pH 7.4; format: physicochemical; conditions: buffer, read-out: Therm_solubility
[8] = Half life in rat liver microsome; format: ADME; conditions: liver microsomes
[9] = Half life in mouse liver microsome; format: ADME; conditions: liver microsomes
[10] = Octanol-water distribution coefficient, log D of the compound; format: physicochemical
[11] = Apparent permeability from apical to basolateral side of Caco-2 cells; format: ADME, cell-based; conditions: human
[12] = Clearance in mouse at 10 mg/kg, iv; format: ADME, organism-based; design: dose 10 mg/kg, route intravenous; conditions: in vivo
[13] = Volume of distribution at steady state in mouse at 10 mg/kg, iv; format: ADME, organism-based; design: dose 10 mg/kg, route intravenous; conditions: in vivo, read-out: Vdss
[14] = Elimination half life in mouse at 10 mg/kg, iv; format: ADME, organism-based; design: dose 10 mg/kg, route intravenous; conditions: in vivo, read-out: beta t1/2 (converted)
[15] = Toxicity in human PC3 cells xenografted nude mouse; format: organism-based, PC-3; conditions: in vivo
HCT-116 [16] = assay: Antitumor activity against human HCT116 cells xenografted in BALB/c mouse at 200 mg/kg, po after 21 days; format: functional, organism-based; design: dose 200 mg/kg
[17] = Oral bioavailability in mouse at 50 mg/kg, po; conditions: in vivo

| SMILES | IC50 (Histone deacetylase 1 [5]) | IC50 (Histone deacetylase 1 [6]) | other results |
| --- | --- | --- | --- |
| O=C(CCCCCNC(=O)NC(=O)c1ccc(NCCN2CCCC2)c([N+](=O)[O-])c1)NO | 22 nM | 2420 nM | IC50 (HCT-116 [1]): 1330 nM; IC50 (A2780): 990 nM; IC50 (PC-3): 920 nM; solubility [2]: > 205 µM; half-life [3]: > 30 min; Activity (Histone deacetylase 1 [4]): Active |
| O=C(CCCCCN(CCCc1ccccc1)C(=O)NC(=O)c1ccccc1)NO | 392 nM |  | IC50 (Histone deacetylase 8): 328 nM |
| O=C(CCCCCNC(=O)NC(=O)c1ccc(N2CCCC2)c([N+](=O)[O-])c1)NO | 20 nM | 3450 nM |  |
| O=C(CCCCCCCNC(=O)NC(=O)c1ccccc1)NO |  | 8280 nM | IC50 (Histone deacetylase 8): 405 nM |
| Nc1cc(C(=O)NC(=O)NCCCCCC(=O)NO)ccc1Cl | 11 nM | 1250 nM |  |
| O=C(CCCCCN(Cc1ccccc1)C(=O)NC(=O)c1ccccc1)NO | 355 nM | 3190 nM | Activity (Histone deacetylase 1 [4]): Active |
| O=C(CCCCCNC(=O)NC(=O)c1ccc(F)cc1)NO | 115 nM | 2550 nM |  |
| O=C(CCCCCN(Cc1ccccn1)C(=O)NC(=O)c1ccccc1)NO | 245 nM | 14700 nM |  |
| O=C(CCCCCNC(=O)NC(=O)c1ccc(I)cc1)NO | 8 nM | 870 nM |  |
| CN(C)CC(C)(C)Cn1cnc2cc(C(=O)NC(=O)NCCCCCC(=O)NO)ccc21 | 20 nM | 3700 nM |  |
| O=C(CCCCCCN(Cc1ccccc1)C(=O)NC(=O)c1ccccc1)NO | 1600 nM |  |  |
| O=C(CCCCCNC(=O)NC(=O)c1cccc(Br)c1)NO | 60 nM | 3150 nM |  |
| O=C(CCCCCNC(=O)NC(=O)c1c(Cl)cccc1Cl)NO | 185 nM | 2950 nM |  |
| CCN(CC)CCn1cnc2cc(C(=O)NC(=O)NCCCCCC(=O)NO)ccc21 | 21 nM | 5100 nM |  |
| O=C(CCCCCNC(=O)NC(=O)c1ccc(Cl)cc1)NO | 26 nM | 1600 nM |  |
| CN1CCN(c2ccc(C(=O)NC(=O)NCCCCCC(=O)NO)cc2[N+](=O)[O-])CC1 | 43 nM | 11500 nM |  |
| O=C(CCCCCNC(=O)NC(=O)c1ccc2c(c1)nc(CCc1ccccc1)n2CCN1CCCC1)NO | 34 nM | 5380 nM | solubility [2]: > 250 µM; half-life [3]: 21 min; Activity (Histone deacetylase 1 [4]): Active |
| O=C(CCCCCNC(=O)NC(=O)c1ccc2ccccc2c1)NO | 6 nM | 2150 nM |  |

| SMILES | IC50 (Histone deacetylase 1 [5]) | IC50 (Histone deacetylase 1 [6]) | other results |
| --- | --- | --- | --- |
| O=C(CCCCCNC(=O)NC(=O)c1cccc([N+](=O)[O-])c1)NO | 92 nM | 2800 nM |  |
| O=C(CCCCCNC(=O)NC(=O)c1ccc2c(c1)ncn2CCc1ccccc1)NO | 25 nM | 9700 nM |  |
| O=C(CCCCCNC(=O)NC(=O)c1ccc(N2CCOCC2)c([N+](=O)[O-])c1)NO | 55 nM | 12000 nM |  |
| O=C(CCCCCNC(=O)NC(=O)c1ccc(NS(=O)(=O)c2ccccc2)cc1)NO | 97 nM | > 100000 nM |  |
| CCN(CC)CCNc1ccc(C(=O)NC(=O)NCCCCCC(=O)NO)cc1[N+](=O)[O-] | 20 nM | 1700 nM |  |
| O=C(CCCCCCC(=O)Nc1ccccc1)NO [VORINOSTAT] |  |  | solubility [2]: > 250 µM; solubility thermodynamic [7]: 166 µg/mL (≈ 628 µM); half-life [3]: > 60 min; half-life [8]: > 30 min; half-life [9]: > 30 min; logD [10]: 1.04; Papp A→B [11]: 1.7 ×10⁻⁶ cm/s; clearance [12]: 112 mL/min/kg; Vd [13]: 0.81 L/kg; half-life [14]: 22.8 min; MTD [15]: 160 mg/kg; Activity (HCT-116 [16]): Active; bioavailability [17]: 8.3% |
| O=C(CCCCCNC(=O)NC(=O)c1ccc(-c2cncnc2)cc1)NO | 26 nM | 10000 nM | solubility [2]: 17 µM (≈ 6.31 µg/mL); half-life [3]: > 30 min; Activity (Histone deacetylase 1 [4]): Active |
| CCCCc1nc2cc(C(=O)NC(=O)NCCCCCC(=O)NO)ccc2n1CCN1CCCC1 | 22 nM | 2910 nM | IC50 (HCT-116 [1]): 3520 nM; IC50 (A2780): 1350 nM; IC50 (PC-3): 1250 nM; solubility [2]: > 211 µM; half-life [3]: > 30 min; Activity (Histone deacetylase 1 [4]): Active |
| CN(C)CCn1cnc2cc(C(=O)NC(=O)NCCCCCC(=O)NO)ccc21 | 49 nM | 19500 nM |  |
| O=C(CCCCCCN(Cc1ccccn1)C(=O)NC(=O)c1ccccc1)NO | 555 nM | 9060 nM |  |
| CC(C)(C)c1ccc(C(=O)NC(=O)NCCCCCC(=O)NO)cc1 | 24 nM | 2350 nM |  |
| O=C(CCCCCNC(=O)NC(=O)c1ccc([N+](=O)[O-])cc1)NO | 45 nM | 2310 nM | Activity (Histone deacetylase 1 [4]): Active |
| O=C(CCCCCNC(=O)NC(=O)c1ccc2c(c1)ncn2CCCc1ccccc1)NO | 20 nM | 3750 nM |  |
| O=C(CCCCCNC(=O)NC(=O)c1ccc(NC(=O)Cc2ccccc2)cc1)NO | 44 nM | 13200 nM | solubility [2]: 28 µM (≈ 11.9 µg/mL); Activity (Histone deacetylase 1 [4]): Active |
| O=C(CCCCCNC(=O)NC(=O)c1ccc(N2CCCCC2)c([N+](=O)[O-])c1)NO | 46 nM | 3250 nM |  |
| O=C(CCCNC(=O)NC(=O)c1ccccc1)NO | > 10000 nM |  | IC50 (Histone deacetylase 8): > 10000 nM |
| O=C(CCCCCCNC(=O)NC(=O)c1ccccc1)NO | 145 nM | 2680 nM | Activity (Histone deacetylase 1 [4]): Active |
